# Assay results reported in PubChem BioAssay AID720662 (NMMLSC, 2013).
# Calls of active or inactive are those of the source.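 The calls were made as follows: active = inhibition of esterase secretion above 50%; inactive = inhibition of esterase secretion below 50%.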
# Tested on: TALL-104 cells, BLT esterase secretion, DTNB absorbance
# Test: inhibitors of granule serine esterase release, confirmation, TALL-104 cells, BLT/DTNB absorbance, CherryPick01 (AID 720662)
# Settings: stronger effect = higher value; dose or concentration not given here
row,SMILES,inhibition
1,COc1ccc(-c2cc(NC=O)c3ncc(-c4cccc(OC)c4)n3c2)cc1,77%
2,O=c1c2ccccc2sn1-c1ccccc1F,38% (inactive)
3,CCc1nc2ccc(C(=O)NC3CCN(Cc4ccccc4)CC3)cn2c1N(C)Cc1cc2ccccc2s1,-4% (inactive)
4,CN(C)CCNC(=O)c1ccc(-c2cn3c(-c4ccc(Oc5ccccc5)cc4)cnc3cn2)cc1,14% (inactive)
5,COc1cccc(-c2cnc3c(NC(C)=O)cc(-c4ccccc4OC)cn23)c1,68%
6,O=C(Cn1sc2ccccc2c1=O)Nc1ccc(F)cc1,38% (inactive)
7,N#Cc1c(Nc2ccccc2Cl)s[nH]c1=O,92%
8,COC(=O)[C@]12CCCCC=C1N(Cc1cccc3ccccc13)C(=O)[C@H](CC(=O)NCc1ccc(OC)c(OC)c1)C2,14% (inactive)
9,CCc1ccc2nc(N(CCCN(C)C)C(=O)c3ccc(S(=O)(=O)N4CCc5ccccc5C4)cc3)sc2c1,67%
10,CC1COCC(C)N1C1=C(Cl)C(=O)c2ccccc2C1=O (stereo not given),97%
11,CN1CCN(CCCNC(=O)c2ccc(/C=C3\Sc4ccccc4N(Cc4ccc(F)cc4)C3=O)cc2)CC1,-12% (inactive)
12,O=c1c2ccccc2sn1-c1ccccc1,68%
13,O=S(=O)(c1ccccc1)c1nnn2c1nc(NC1CCN(Cc3ccccc3)CC1)c1cc(Cl)ccc12,88%
14,CCCCC[C@@H](C)N1C[C@@H](COCc2ccccc2)Oc2cc(N3CC[C@@H](N(C)C)C3)ccc2S1(=O)=O,76%
15,OC(CNCC(c1ccc(Cl)cc1Cl)c1c[nH]c2ccccc12)c1ccccc1 (stereo not given),2% (inactive)
16,COc1cc(-c2coc3c(C(=O)NCc4ccc(OC)c(OC)c4)cccc23)ccc1O,20% (inactive)
17,c1ccc(CNc2nc(NCC3CC3)nc3cc(-c4ccccc4)sc23)cc1,86%
18,O=C1CC(Sc2nnnn2-c2ccccc2)C(=O)N1c1cccc(Cl)c1 (stereo not given),72%
19,O=C(CN1C(=O)/C(=C\c2cccc(Br)c2)Oc2ccccc21)NCCCN1CCOCC1,24% (inactive)
20,COC(=O)c1c(NC(=O)c2nc3ccccc3s2)sc2c1CC(C)(C)NC2(C)C,51%
21,O=C1C=CC(=O)N1N(c1ccccc1)c1ccccc1,27% (inactive)
22,Cc1cc(C)c2nc(C)cc(N/N=C/c3ccc(O)cc3)c2c1,88%
23,CN(c1ccccc1)S(=O)(=O)c1cccc(C(=O)NCCc2c[nH]c3ccccc23)c1,23% (inactive)
24,Nc1c(C(=O)NCc2ccc(F)cc2)c2nc3ccccc3nc2n1CCCN1CCOCC1,15% (inactive)
25,CCOC(=O)c1c(NC(=O)COc2ccccc2OCC)sc2c1CC(C)(C)NC2(C)C,55%

row,SMILES,inhibition
1,CCCCC[C@@H](C)N1C[C@@H](COCc2ccccc2)Oc2cc(N3CC[C@H](N(C)C)C3)ccc2S1(=O)=O,74%
2,Cn1sc(=O)c2cc(S(=O)(=O)NC3CC3)ccc21,63%
3,CN(C)CCCNC(=S)NCC(c1ccc(Cl)cc1Cl)c1c[nH]c2ccccc12 (stereo not given),-3% (inactive)
4,CCOc1ccc2[nH]c3c(N4CCc5ccccc5C4)ncnc3c2c1,-5% (inactive)
5,COC(=O)c1c(NC(=O)c2ccc(C(=O)c3ccccc3)cc2)sc2c1CC(C)(C)NC2(C)C,5% (inactive)
6,CC(=O)Nc1ccc2c(=O)n(-c3ccccc3)sc2c1,25% (inactive)
7,O=CNc1cc(-c2ccsc2)cn2c(-c3ccccc3)cnc12,41% (inactive)
8,CCC(=C(c1ccc(OC)cc1)c1ccc(OC)cc1)c1cn(CC(O)CN2CCN(C)CC2)c2ccccc12 (stereo not given),1% (inactive)
9,COc1ccccc1CNc1nc(NCc2ccc(C(C)C)cc2)c2sccc2n1,54%
10,CC(C)(c1ccccc1)c1ccc(OCC(O)CNC2CCN(Cc3ccccc3)CC2)cc1 (stereo not given),83%
11,COc1ccc(N2C(=O)CC(Sc3nnc(-c4ccccc4)o3)C2=O)cc1 (stereo not given),89%
12,Cc1ccc(-n2nnc3c(=O)oc4ccccc4c32)cc1,94%
13,Cc1ccc(Nc2nc(NCc3ccco3)c3ccccc3n2)cc1,12% (inactive)
14,COc1cccc(-c2cnc3c(NC(C)=O)cc(-c4ccsc4)cn23)c1,64%
15,O=C(Nc1ccc(F)cc1)c1nc(S(=O)(=O)Cc2ccccc2)ncc1Cl,97%
16,CCc1ccc(/C=C2/Sc3ccccc3N(CC(=O)NCCCN3CCOCC3)C2=O)cc1,14% (inactive)
17,CC(C)CNC(=O)c1c(N)n(Cc2ccc3c(c2)OCO3)c2nc3ccccc3nc12,3% (inactive)
18,CCOc1ccccc1CNC(=O)C1CCN(c2nnc(C)c3c(C)n(-c4ccc(C)cc4)nc23)CC1,94%
19,N#Cc1ccc(NC(=O)Nc2ccc(Oc3ccc(NC(=O)Nc4ccc(C#N)cc4)cc3)cc2)cc1,36% (inactive)
20,Cc1cc(N2CCN(c3nc(-c4ccc([N+](=O)[O-])cc4)cs3)CC2)c2ccccc2n1,80%
21,Fc1ccc(/C=C\c2nccc3c2[nH]c2ccccc23)cc1,86%
22,CCOc1cc(CNCCc2ccc(S(N)(=O)=O)cc2)ccc1OCc1ccc(Cl)cc1,90%
23,CC(=O)Nc1ccc2sn(-c3ccccc3)c(=O)c2c1,20% (inactive)
24,COc1ccc(-c2cc(NC=O)c3ncc(-c4ccccc4)n3c2)cc1OC,63%
25,CN1CCN(c2cc(-c3ccccc3)nc3cc(-c4ccc(F)cc4)nn23)CC1,79%

row,SMILES,inhibition
1,O=C(OCc1ccccc1)N(CCCCN(CCCNCc1ccccc1)C(=O)OCc1ccccc1)CCCNCc1ccccc1,88%
2,O=c1c2ccc(F)cc2sn1-c1ccccc1,61%
3,COc1cccc(NC(=O)Nc2nc(-c3ccc(OC)c(OC)c3)cs2)c1,96%
4,CCCCC[C@@H](C)N1C[C@H](COCc2ccccc2)Oc2cc(N3CC[C@@H](N(C)C)C3)ccc2S1(=O)=O,64%
5,O=C(Cn1sc2ccccc2c1=O)NC12CC3CC(CC(C3)C1)C2,33% (inactive)
6,CCOc1ccc2nc(N(CCCN(C)C)C(=O)c3ccc(S(=O)(=O)N4CCc5ccccc5C4)cc3)sc2c1,91%
7,CCOC(=O)c1nnc(-c2ccccc2)nc1Sc1ccccc1Cl,-8% (inactive)
8,Cc1ccc(S(=O)(=O)n2ccc3c(OCCOCCNCc4ccc(F)cc4)cccc32)cc1,67%
9,CCCNC(=O)Cn1sc2nc(C)cc(C)c2c1=O,38% (inactive)
10,CCCCCCSc1cccc(-c2nc3ccccn3c2NCc2ccccc2)c1,7% (inactive)
11,COc1ccccc1CNc1nc(NCc2ccc3occc3c2)c2sccc2n1,22% (inactive)
12,COc1ccc(-n2sc3ccccc3c2=O)cc1,45% (inactive)
13,CCCS(=O)(=O)Nc1ccc(Nc2c3ccccc3nc3ccccc23)c(OC)c1,81%
14,CCN(CC)CCCNc1ccc(-c2nnc(-c3ccc(OCC(C)C)cc3)o2)cn1,52%
15,COc1cccc(-c2cnc3c(NC=O)cc(-c4ccccc4)cn23)c1,43% (inactive)
16,CC1=C(C)CS(=O)N(S(=O)(=O)c2ccc(Cl)cc2)C1 (stereo not given),99%
17,CCCCn1c(=N)n(CC(=O)c2ccc(Br)s2)c2ccccc21,91%
18,CC1(C(=O)OCC(=O)Nc2nc(-c3ccc(F)c(F)c3)cs2)CC1(Cl)Cl (stereo not given),-8% (inactive)
19,COc1ccc([N+](=O)[O-])cc1Nc1c2ccccc2nc2ccccc12,10% (inactive)
20,CC1=NOC(=O)/C1=C/c1ccc(-c2ccc(Cl)cc2)o1,73%
21,O=C1Nc2ccc(Br)cc2/C1=C/C(=O)c1ccccc1,3% (inactive)
22,CCOc1ccc2nc(C)cc(Nc3cccc([N+](=O)[O-])c3)c2c1,95%
23,CCOC(=O)c1c(CSc2ccccc2)n(C)c2cc(Br)c(O)c(CN(C)C)c12,25% (inactive)
24,Cn1cncc1C#Cc1c(-c2ccc(S(C)(=O)=O)cc2)sc2ccccc12,13% (inactive)
25,CCOC(=O)c1cc(-c2csc(Nc3c(C)cc(C)cc3C)n2)on1,68%
